Measurements reported in PMC7469376 (ACS Omega, 2020).

Columns and labels:
SphK1 [1] = target: T1, SphK1 (Homo sapiens, UniProt Q9NYA1); assay: Isothermal titration calorimetry of harmaline with SphK1; type: binding
SphK1 [2] = target: T1, SphK1; assay: Malachite green-based ATPase enzyme inhibition assay; type: biochemical
H1299 cells = assay: MTT cell viability assay, H1299; type: cell-based; conditions: Homo sapiens, NCI-H1299, 48 h, read-out: IC50, cell viability (MTT)
A549 cells = assay: MTT cell viability assay, A549; type: cell-based; conditions: Homo sapiens, A549, 48 h, read-out: IC50, cell viability (MTT)
[3] = test system: caspase-3 activity in A549 cells; assay: Caspase-3 colorimetric assay, A549; type: cell-based, human; conditions: 50 and 100 μM, 24 h, compared to untreated cells
[4] = test system: caspase-3 activity in H1299 cells; assay: Caspase-3 colorimetric assay, H1299; type: cell-based, human; conditions: 50 and 100 μM, 24 h, compared to untreated cells
HEK293 = conditions: read-out: IC50 against HEK293; after 72 h of treatment; ref Storch et al. 94; cited from earlier work

T1 sequence (Q9NYA1 whole entry): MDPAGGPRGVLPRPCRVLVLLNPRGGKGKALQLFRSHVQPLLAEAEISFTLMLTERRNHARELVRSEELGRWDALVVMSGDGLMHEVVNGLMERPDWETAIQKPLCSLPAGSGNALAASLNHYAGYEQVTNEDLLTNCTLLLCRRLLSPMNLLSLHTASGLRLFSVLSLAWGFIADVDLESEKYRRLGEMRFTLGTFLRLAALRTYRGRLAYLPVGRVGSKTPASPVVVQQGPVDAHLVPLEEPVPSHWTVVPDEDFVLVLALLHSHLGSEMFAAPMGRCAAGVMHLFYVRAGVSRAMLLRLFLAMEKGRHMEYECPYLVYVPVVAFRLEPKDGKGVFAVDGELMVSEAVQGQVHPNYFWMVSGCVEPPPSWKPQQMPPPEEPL

SMILES: COc1ccc2c3c([nH]c2c1)C(C)=NCC3 [harmaline]
- association constant Ka1 (SphK1 [1]; ITC, site 1): Ka1 = 1.89 × 10^4 ± 1.3 × 10^3 M^–1
- enthalpy change ΔH1 (SphK1 [1]; ITC, site 1): ΔH1 = −3205 ± 197 cal/mol
- ΔG1 (free energy change) (SphK1 [1]; ITC, site 1): ΔG1 = −5.83 kcal/mol
- ΔS1 (SphK1 [1]; ITC, site 1): ΔS1 = 8.82 cal/mol/deg
- association constant Ka2 (SphK1 [1]; ITC, site 2): Ka2 = 1.49 × 10^5 ± 8.6 × 10^3 M^–1
- enthalpy change ΔH2 (SphK1 [1]; ITC, site 2): ΔH2 = 1895 ± 257 cal/mol
- ΔG2 (free energy change) (SphK1 [1]; ITC, site 2): ΔG2 = −7.04 kcal/mol
- ΔS2 (SphK1 [1]; ITC, site 2): ΔS2 = 30.0 cal/mol/deg
- association constant Ka3 (SphK1 [1]; ITC, site 3): Ka3 = 3.50 × 10^4 ± 2.0 × 10^3 M^–1
- enthalpy change ΔH3 (SphK1 [1]; ITC, site 3): ΔH3 = 272.3 ± 190 cal/mol
- ΔG3 (free energy change) (SphK1 [1]; ITC, site 3): ΔG3 = −5.99 kcal/mol
- ΔS3 (SphK1 [1]; ITC, site 3): ΔS3 = 21.7 cal/mol/deg
- association constant Ka4 (SphK1 [1]; ITC, site 4): Ka4 = 4.58 × 10^3 ± 2.9 × 10^2 M^–1
- enthalpy change ΔH4 (SphK1 [1]; ITC, site 4): ΔH4 = −9574 ± 467 cal/mol
- ΔG4 (free energy change) (SphK1 [1]; ITC, site 4): ΔG4 = −4.98 kcal/mol
- ΔS4 (SphK1 [1]; ITC, site 4): ΔS4 = −15.4 cal/mol/deg
- Kd (SphK1 [1]; dissociation constant KD1, ITC, site 1): 52.9 µM
- Kd (SphK1 [1]; dissociation constant KD2, ITC, site 2): 6.7 µM
- Kd (SphK1 [1]; dissociation constant KD3, ITC, site 3): 28.6 µM
- Kd (SphK1 [1]; dissociation constant KD4, ITC, site 4): 218 µM
- IC50 (SphK1 [2]; IC50, SphK1 ATPase activity, harmaline 0 to 30 μM, three independent experiments): 6.13 µM
- hill slope of SphK1 inhibition curve (SphK1 [2]; three-parameter Hill fit): 0.57
- IC50 (H1299 cells): 48.2 ± 1.76 µM
- IC50 (A549 cells): 67.9 ± 2.91 µM
- caspase-3 activity (free pNA liberated per hour) [3]: gradual increase in the caspase-3 activity
- caspase-3 activity (free pNA liberated per hour) [4]: gradual increase in the caspase-3 activity
- IC50 (HEK293): > 200 µM
